Legend:
Format in all cases: binding
KRAS G12S = target: T1, KRAS G12S (Homo sapiens, UniProt P01116, G12S); assay: HTRF assay of K-Ras G12S interaction with SOS1 (PPI-HTRF); settings: 5 nM KRAS G12S, read-out: PPI-HTRF-5 nM KRAS G12S
T1 construct: made in house; host or cells: E. coli, e.g. BL21 (DE3)
Outline: (§1)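 Equilibrium binding between GST-K-Ras and His-tagged human SOS1 is measured by FRET from a europium anti-GST donor to an XL665 anti-His acceptor. Compounds are run in duplicate at 10, 2.5, 0.63, 0.16, 0.04 and 0.01 μM, and IC50 is calculated from the 665/620 nm ratio.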

KRAS G12D = target: T2, KRAS G12D (Homo sapiens, UniProt P01116, G12D); assay: HTRF assay of K-Ras G12D interaction with SOS1 (PPI-HTRF); settings: HTRF, 5 nM KRAS G12D; read-out: PPI-HTRF-5 nM KRAS G12D
T2 construct: made in house; host or cells: E. coli, e.g. BL21 (DE3)
T2 sequence (P01116 1-188 isoform P01116-2 G12D): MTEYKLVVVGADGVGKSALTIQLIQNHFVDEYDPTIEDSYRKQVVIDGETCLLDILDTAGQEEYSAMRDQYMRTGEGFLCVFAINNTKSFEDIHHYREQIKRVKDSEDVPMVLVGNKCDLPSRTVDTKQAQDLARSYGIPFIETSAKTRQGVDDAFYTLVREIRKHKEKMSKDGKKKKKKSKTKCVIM
Outline: as §1

KRAS WT = target: T3, KRAS WT (Homo sapiens, UniProt P01116); assay: HTRF assay of wildtype K-Ras interaction with SOS1 (PPI-HTRF); settings: HTRF, 5 nM KRAS WT; read-out: PPI-HTRF-5 nM KRAS WT
T3 construct: made in house; host or cells: E. coli, e.g. BL21 (DE3)
T3 sequence (P01116 1-188 isoform P01116-2): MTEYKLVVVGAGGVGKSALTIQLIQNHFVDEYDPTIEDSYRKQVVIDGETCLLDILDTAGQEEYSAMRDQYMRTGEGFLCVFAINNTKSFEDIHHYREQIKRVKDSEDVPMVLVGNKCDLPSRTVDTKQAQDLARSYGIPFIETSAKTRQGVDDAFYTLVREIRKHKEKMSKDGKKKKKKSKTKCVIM
Outline: as §1

Measured: IC50

T1 sequence (P01116 1-188 isoform P01116-2 G12S): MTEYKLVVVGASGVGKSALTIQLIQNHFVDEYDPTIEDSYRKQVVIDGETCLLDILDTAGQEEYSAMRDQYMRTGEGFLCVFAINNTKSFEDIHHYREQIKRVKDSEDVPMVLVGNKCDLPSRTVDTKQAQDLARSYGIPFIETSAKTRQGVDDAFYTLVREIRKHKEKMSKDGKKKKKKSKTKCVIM

N#Cc1c(N)sc2c(F)ccc(-c3c(Cl)cc4c(N5CC6(CCN6C(=O)C6CC6(F)F)C5)nc(OC[C@@]56CCCN5C[C@H](F)C6)nc4c3F)c12 (stereo partly drawn) [Compound 340, 2-amino-4-(6-chloro-4-(1-(2,2-difluorocyclopropane-1-carbonyl)-1,6-diazaspiro[3.3]heptan-6-yl)-8-fluoro-2-(((2R,7aS)-2-fluorotetrahydro-1H-pyrrolizin-7a(5H)-yl)methoxy)quinazolin-7-yl)-7-fluorobenzo[b]thiophene-3-carbonitrile]
< 5 µM: all assays above

N#Cc1c(N)sc2c(F)ccc(-c3c(Cl)cc4c(N5CCC6(CCCN6C(=O)C6CC6(F)F)CC5)nc(OC[C@@]56CCCN5C[C@H](F)C6)nc4c3F)c12 (stereo partly drawn) [Compound 341, 2-amino-4-(6-chloro-4-(1-(2,2-difluorocyclopropane-1-carbonyl)-1,8-diazaspiro[4.5]decan-8-yl)-8-fluoro-2-(((2R,7aS)-2-fluorotetrahydro-1H-pyrrolizin-7a(5H)-yl)methoxy)quinazolin-7-yl)-7-fluorobenzo[b]thiophene-3-carbonitrile]
< 5 µM: all assays above

N#Cc1c(N)sc2c(F)ccc(-c3c(Cl)cc4c(N5CCC6(CC5)CCN6C(=O)C5CC5(F)F)nc(OC[C@@]56CCCN5C[C@H](F)C6)nc4c3F)c12 (stereo partly drawn) [Compound 342, 2-amino-4-(6-chloro-4-(1-(2,2-difluorocyclopropane-1-carbonyl)-1,7-diazaspiro[3.5]nonan-7-yl)-8-fluoro-2-(((2R,7aS)-2-fluorotetrahydro-1H-pyrrolizin-7a(5H)-yl)methoxy)quinazolin-7-yl)-7-fluorobenzo[b]thiophene-3-carbonitrile]
< 5 µM: all assays above

N#Cc1c(NC(=O)C2CC2(F)F)sc2c(F)ccc(-c3c(F)c4nc(OC[C@@]56CCCN5C[C@H](F)C6)nc(N5CCC6(CCN6C(=O)C6CC6(F)F)C5)c4c(=O)n3C3CC3)c12 (stereo partly drawn) [Compound 343, N-(3-cyano-4-(6-cyclopropyl-4-(1-(2,2-difluorocyclopropane-1-carbonyl)-1,6-diazaspiro[3.4]octan-6-yl)-8-fluoro-2-(((2R,7aS)-2-fluorotetrahydro-1H-pyrrolizin-7a(5H)-yl)methoxy)-5-oxo-5,6-dihydropyrido[4,3-d]pyrimidin-7-yl)-7-fluorobenzo[b]thiophen-2-yl)-2,2-difluorocyclopropane-1-carboxamide]
< 5 µM: all assays above

N#Cc1c(N)sc2c(F)ccc(-c3c(Cl)cc4c(N5CCC6(CCN6C(=O)OC(CO)C(F)(F)F)C5)nc(OC[C@@]56CCCN5C[C@H](F)C6)nc4c3F)c12 (stereo partly drawn) [Compound 345, 1,1,1-trifluoro-3-hydroxypropan-2-yl 6-(7-(2-amino-3-cyano-7-fluorobenzo[b]thiophen-4-yl)-6-chloro-8-fluoro-2-(((2R,7aS)-2-fluorotetrahydro-1H-pyrrolizin-7a(5H)-yl)methoxy)quinazolin-4-yl)-1,6-diazaspiro[3.4]octane-1-carboxylate]
< 5 µM: all assays above

C[C@H](Oc1nc(N2CC[C@@]3(CCN3C(=O)C3CC3(F)F)C2)c2cc(Cl)c(-c3ccc(F)c4sc(N)c(C#N)c34)c(F)c2n1)[C@@H]1CCCN1C (stereo partly drawn) [Compound 346, (4S)-2-amino-4-(6-chloro-4-((4R)-1-(2,2-difluorocyclopropane-1-carbonyl)-1,6-diazaspiro[3.4]octan-6-yl)-8-fluoro-2-((S)-1-((S)-1-methylpyrrolidin-2-yl)ethoxy)quinazolin-7-yl)-7-fluorobenzo[b]thiophene-3-carbonitrile]
< 5 µM: all assays above

N#Cc1c(N)sc2c(F)ccc(-c3c(Cl)cc4c(N5CCC6(CCN6C(=O)C(Cl)Cl)C5)nc(OC[C@@]56CCCN5C[C@H](F)C6)nc4c3F)c12 (stereo partly drawn) [Compound 347, 2-amino-4-(6-chloro-4-(1-(2,2-dichloroacetyl)-1,6-diazaspiro[3.4]octan-6-yl)-8-fluoro-2-(((2R,7aS)-2-fluorotetrahydro-1H-pyrrolizin-7a(5H)-yl)methoxy)quinazolin-7-yl)-7-fluorobenzo[b]thiophene-3-carbonitrile]
< 5 µM: all assays above

N#Cc1c(N)sc2c(F)ccc(-c3c(Cl)cc4c(N5CCCCC6(CCN6C(=O)n6cncn6)C5)nc(OC[C@@]56CCCN5C[C@H](F)C6)nc4c3F)c12 (stereo partly drawn) [Compound 350]
< 5 µM: all assays above

N#Cc1c(N)sc2c(F)ccc(-c3c(Cl)cc4c(N5CCOCC6(CCN6C(=O)n6cncn6)C5)nc(OC[C@@]56CCCN5C[C@H](F)C6)nc4c3F)c12 (stereo partly drawn) [Compound 351, 4-(4-(1-(1H-1,2,4-triazole-1-carbonyl)-6-oxa-1,9-diazaspiro[3.6]decan-9-yl)-6-chloro-8-fluoro-2-(((2R,7aS)-2-fluorotetrahydro-1H-pyrrolizin-7a(5H)-yl)methoxy)quinazolin-7-yl)-2-amino-7-fluorobenzo[b]thiophene-3-carbonitrile]
< 5 µM: all assays above

Source: US20240116951A1, “HETEROCYCLIC COMPOUNDS AND USES THEREOF” (Kumquat Biosciences Inc., priority 2022, published 2024)
